The target of one test is T1, PD-L1 (Homo sapiens, UniProt Q9NZQ7).
T1 construct: determine if they can specifically dimerize the extracellular domains of PD-L1
The test can be described thus: PD-L1/PD-L1 dimerization biochemical protein-protein interaction assay (ALPHA). The class given is binding. Conditions: compound-induced PD-L1 dimerization, head prints '1 nM' (0.5 nM His-tagged PD-L1 and 0.5 nM FLAG-tagged PD-L1), read-out: AC50 PDL1 Dimer Alpha 1 nM. A digest of the protocol: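 After 2 h at 25 °C with compound, His- and FLAG-tagged PD-L1 ECDs (each 0.5 nM final; 25 mM Hepes pH 7.4, 150 mM NaCl) were detected by sequential anti-His acceptor and anti-FLAG donor bead incubations. Dose-response curves fitted to four-parameter equation for AC50.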

Another test addresses PD-1/PD-L1 (Homo sapiens, UniProt Q9NZQ7). The test can be described thus: PD-1/PD-L1 biochemical protein-protein interaction assay (ALPHA). It is filed as binding. As to conditions: 0.3 nM His tagged PD-L1, 2.5 nM biotinylated Fc-PD-1, 60 minutes at 25° C., read-out: IC50 PD-L1-PD-1 Alpha IC50-mono PD-L1-fcP-D1. A digest of the protocol: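 IC50 values derive from four-parameter fits of ALPHA signal decrease. Assay: 0.3 nM His-tagged PD-L1 with 2.5 nM biotinylated Fc-PD-1, Hepes pH 7.4 with 0.005% Tween 20 and 0.01% BSA, 60 min at 25° C, then anti-His acceptor and streptavidin donor beads.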

For the next test, the target named is T2, PD-1/PD-L1 interaction (Homo sapiens, UniProt Q9NZQ7).
T2 construct: expressed in transfected cells; host or cells: CHO cells (aAPC-PD-L1) co-cultured with Jurkat cells overexpressing PD-1 and an NFAT-luciferase reporter
T2 sequence (Q9NZQ7 19-290): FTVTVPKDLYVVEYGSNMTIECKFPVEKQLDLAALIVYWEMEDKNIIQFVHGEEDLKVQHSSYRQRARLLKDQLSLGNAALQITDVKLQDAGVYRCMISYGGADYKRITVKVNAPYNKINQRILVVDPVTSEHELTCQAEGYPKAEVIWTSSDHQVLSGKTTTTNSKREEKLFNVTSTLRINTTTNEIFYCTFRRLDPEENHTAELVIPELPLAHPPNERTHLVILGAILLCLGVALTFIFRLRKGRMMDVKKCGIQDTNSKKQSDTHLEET
The test is described as follows: PD-1/PD-L1 NFAT reporter co-culture assay. As to conditions: Jurkat PD-1 NFAT-luciferase cells co-cultured with aAPC-PD-L1 CHO cells, 6 hrs at 37° C.; read-out: EC50 NFAT Luciferase. The class given is cell-based. An outline of the steps:
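Luminescence (ONE-Glo) after 6 h, 37 °C co-culture reports NFAT-luciferase in PD-1 Jurkat cells, which PD-1/PD-L1 engagement suppresses. Partner cells: CHO expressing anti-CD3 and PD-L1. EC50 from four-parameter dose-response fit.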

Structures are written as SMILES.

Consider 20 compounds from patent US12590062B2, “PD-1/PD-L1 inhibitors” (Gilead Sciences, Inc., priority 2017, dated 2026).

Chain of PD-1/PD-L1 (Q9NZQ7 19-238 limits assumed): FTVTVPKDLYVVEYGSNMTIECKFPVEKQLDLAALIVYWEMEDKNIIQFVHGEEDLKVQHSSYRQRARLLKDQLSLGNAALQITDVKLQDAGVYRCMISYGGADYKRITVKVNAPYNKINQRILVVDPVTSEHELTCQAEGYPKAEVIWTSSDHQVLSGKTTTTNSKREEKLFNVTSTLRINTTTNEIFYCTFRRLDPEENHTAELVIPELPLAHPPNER
T1 sequence (Q9NZQ7 19-238 limits assumed): as above
T1 sequence (Q9NZQ7 19-238 limits assumed): as above

For orientation: AC50 means the concentration giving half of the maximal activity seen. The IC50 is the concentration that inhibits the measured activity by half. A word on the EC50: it is the midpoint of the concentration-response curve. As to `Cc1c(COc2cc(OCc3cncc(C#N)c3)c(CNC[C@@H](O)CC(=O)O)cc2Cl)cccc1-c1cccc(-c2ccc(CN(C)C)cc2)c1C` [Example 383, (S)-4-((5-chloro-2-((5-cyanopyridin-3-yl)methoxy)-4-((4″-((dimethylamino)methyl)-2,2′-dimethyl-[1,1′:3′,1″-terphenyl]-3-yl)methoxy)benzyl)amino)-3-hydroxybutanoic acid], the concentration at half-maximal activity (AC50) on PD-L1 was determined as 157 nM. In addition, the half-inhibitory concentration (IC50) at PD-1/PD-L1 amounted to 0.252 nM. Further, the EC50 on PD-1/PD-L1 interaction worked out at 467 nM.
With `Cc1c(COc2cc(OCc3cncc(C#N)c3)c(CNC[C@@H](O)CC(=O)O)cc2Cl)cccc1-c1cccc(-c2ccc(CNC[C@@H](O)CC(=O)O)cc2)c1C` [Example 384, (S)-4-((4-((4″-((((S)-3-carboxy-2-hydroxypropyl)amino)methyl)-2,2′-dimethyl-[1,1′:3′,1″-terphenyl]-3-yl)methoxy)-5-chloro-2-((5-cyanopyridin-3-yl)methoxy)benzyl)amino)-3-hydroxybutanoic acid], the AC50 on PD-L1 was 154 nM. The half-inhibitory concentration (IC50) at PD-1/PD-L1 stood at 0.112 nM. The EC50 on PD-1/PD-L1 interaction was found to be 154 nM.
As for `COc1cc(COc2cccc(-c3cccc(COc4cc(OCc5cncc(C#N)c5)c(CNC[C@@H](O)CC(=O)O)cc4Cl)c3C)c2C)c(Cl)cc1CNC[C@@H](O)CC(=O)O` [Example 389, (S)-4-((4-(((3′-((4-((((S)-3-carboxy-2-hydroxypropyl)amino)methyl)-2-chloro-5-((5-cyanopyridin-3-yl)methoxy)phenoxy)methyl)-2,2′-dimethyl-[1,1′-biphenyl]-3-yl)oxy)methyl)-5-chloro-2-methoxybenzyl)amino)-3-hydroxybutanoic acid], the concentration at half-maximal activity (AC50) on PD-L1 came out at 120 nM. The IC50 on PD-1/PD-L1 amounted to 0.374 nM. Besides, the 50% effective concentration (EC50) on PD-1/PD-L1 interaction amounted to 306 nM.
Take `Cc1c(COc2cc(OCc3cncc(C#N)c3)c(CNC[C@@H](O)CC(=O)O)cc2Cl)cccc1-c1cccc(OCc2cc(OCc3cncc(C#N)c3)c(CNC[C@@H](O)CC(=O)O)cc2Cl)c1C` [Example 390, (S)-4-((4-((3′-((4-((((S)-3-carboxy-2-hydroxypropyl)amino)methyl)-2-chloro-5-((5-cyanopyridin-3-yl)methoxy)benzyl)oxy)-2,2′-dimethyl-[1,1′-biphenyl]-3-yl)methoxy)-5-chloro-2-((5-cyanopyridin-3-yl)methoxy)benzyl)amino)-3-hydroxybutanoic acid]: the AC50 on PD-L1 is 97.5 nM. Besides, the half-inhibitory concentration (IC50) at PD-1/PD-L1 was found to be 0.324 nM. In addition, the EC50 on PD-1/PD-L1 interaction came to 120 nM.
On the same counts, the results for `Cc1c(COc2cc(OCc3cncc(C#N)c3)c(CNCC3(O)CC3)cc2Cl)cccc1-c1cccc(-c2ccc(OCCNCCO)cc2)c1C` [Example 391, 5-((4-chloro-2-((((1-hydroxycyclopropyl)methyl)amino)methyl)-5-((4″-(2-((2-hydroxyethyl)amino)ethoxy)-2,2′-dimethyl-[1,1′:3′,1″-terphenyl]-3-yl)methoxy)phenoxy)methyl)nicotinonitrile] are 243 nM, 1.42 nM and 305 nM.
For the compound `Cc1c(COc2cc(OCc3cncc(C#N)c3)c(CNC[C@@H](O)CC(=O)O)cc2Cl)cccc1-c1cccc(OCc2ccc(CNC[C@@H](O)CC(=O)O)cn2)c1C` [Example 392, (S)-4-(((6-(((3′-((4-((((S)-3-carboxy-2-hydroxypropyl)amino)methyl)-2-chloro-5-((5-cyanopyridin-3-yl)methoxy)phenoxy)methyl)-2,2′-dimethyl-[1,1′-biphenyl]-3-yl)oxy)methyl)pyridin-3-yl)methyl)amino)-3-hydroxybutanoic acid], the concentration at half-maximal activity (AC50) on PD-L1 was 232 nM. Further, on PD-1/PD-L1, the IC50 came out at 0.051 nM. At PD-1/PD-L1 interaction, the concentration for a half-maximal effect (EC50) was found to be 351 nM.
On the same counts, the results for `Cc1c(COc2cc(OCc3cncc(C#N)c3)c(CNC[C@@H](O)CC(=O)O)cc2Cl)cccc1-c1cccc(-c2nc3c(Cl)cc(CNC[C@@H](O)CC(=O)O)cn3n2)c1C` [Example 393, (S)-4-(((2-(3′-((4-((((S)-3-carboxy-2-hydroxypropyl)amino)methyl)-2-chloro-5-((5-cyanopyridin-3-yl)methoxy)phenoxy)methyl)-2,2′-dimethyl-[1,1′-biphenyl]-3-yl)-8-chloro-[1,2,4]triazolo[1,5-a]pyridin-6-yl)methyl)amino)-3-hydroxybutanoic acid] are 84 nM, 0.064 nM and 118 nM.
Regarding `Cc1c(COc2cc(OCc3cncc(C#N)c3)c(CNC[C@@H](O)CC(=O)O)cc2Cl)cccc1-c1cccc(-c2cn3cc(CNC[C@@H](O)CC(=O)O)ccc3n2)c1C` [Example 394, (S)-4-(((2-(3′-((4-((((S)-3-carboxy-2-hydroxypropyl)amino)methyl)-2-chloro-5-((5-cyanopyridin-3-yl)methoxy)phenoxy)methyl)-2,2′-dimethyl-[1,1′-biphenyl]-3-yl)imidazo[1,2-a]pyridin-6-yl)methyl)amino)-3-hydroxybutanoic acid], the half-maximal activity concentration (AC50) at PD-L1 worked out at 130 nM. In addition, the concentration for half-maximal inhibition (IC50) on PD-1/PD-L1 stood at 0.102 nM. In addition, the 50% effective concentration (EC50) at PD-1/PD-L1 interaction was determined as 435 nM.
On to `Cc1c(COc2cc(OCc3cncc(C#N)c3)c(CNC[C@@H](O)CC(=O)O)cc2Cl)cccc1-c1cccc(-c2nc3c(C)c(CNC[C@@H](O)CC(=O)O)ccc3s2)c1C` [Example 395, (S)-4-(((2-(3′-((4-((((S)-3-carboxy-2-hydroxypropyl)amino)methyl)-2-chloro-5-((5-cyanopyridin-3-yl)methoxy)phenoxy)methyl)-2,2′-dimethyl-[1,1′-biphenyl]-3-yl)-4-methylbenzo[d]thiazol-5-yl)methyl)amino)-3-hydroxybutanoic acid], for which the concentration at half-maximal activity (AC50) at PD-L1 was 89.6 nM. For the same compound, the IC50 at PD-1/PD-L1 worked out at 0.217 nM. The EC50 at PD-1/PD-L1 interaction turned out to be 151 nM.
In the case of `Cc1c(-c2nc3ccc(CNC[C@@H](O)CC(=O)O)cc3s2)cccc1-c1cccc2c1CC[C@@H]2Oc1nc(OCc2cncc(C#N)c2)c(CNC[C@@H](O)CC(=O)O)cc1Cl` [Example 396, (S)-4-(((2-(3-((S)-1-((5-((((S)-3-carboxy-2-hydroxypropyl)amino)methyl)-3-chloro-6-((5-cyanopyridin-3-yl)methoxy)pyridin-2-yl)oxy)-2,3-dihydro-1H-inden-4-yl)-2-methylphenyl)benzo[d]thiazol-6-yl)methyl)amino)-3-hydroxybutanoic acid], the AC50 on PD-L1 amounted to 37.9 nM. For the same compound, the IC50 at PD-1/PD-L1 amounted to 0.064 nM. Moreover, the EC50 at PD-1/PD-L1 interaction amounted to 105 nM.
On to `COc1cc(-c2cccc(-c3cccc(COc4nc(OC)c(CN5CC6(C5)CN(C(C)=O)C6)cc4Br)c3Cl)c2Cl)ccc1CN1CC2(C1)CN(C(C)=O)C2` [Example 425], for which the concentration at half-maximal activity (AC50) on PD-L1 was found to be 226 nM. In addition, on PD-1/PD-L1, the IC50 was 0.755 nM. For the same compound, the EC50 at PD-1/PD-L1 interaction turned out to be 544 nM.
As to `COc1nc(-c2cccc(-c3cccc(OCc4ccc(CNC[C@@H]5CCC(=O)N5)cc4)c3Cl)c2Cl)ccc1CNC[C@@H]1CCC(=O)N1` [Example 426], the AC50 on PD-L1 was determined as 408 nM. In addition, the IC50 on PD-1/PD-L1 was found to be 0.397 nM. For the same compound, the EC50 on PD-1/PD-L1 interaction was determined as 634 nM.
Consider `COc1nc(Oc2cccc(-c3cccc(-c4ccc(CNC[C@@H]5CCC(=O)N5)c(OC)n4)c3Cl)c2Cl)ccc1CNC[C@@H]1CCC(=O)N1` [Example 428], for which, on PD-L1, the AC50 came to 525 nM. In addition, on PD-1/PD-L1, the IC50 was determined as 1.37 nM. Besides, the 50% effective concentration (EC50) at PD-1/PD-L1 interaction stood at 282 nM.
On to `COc1nc(C(=O)Nc2cccc(-c3cccc(-c4ccc(CNC[C@@H]5CCC(=O)N5)c(OC)n4)c3Cl)c2Cl)ccc1CNC[C@@H]1CCC(=O)N1` [Example 429], for which the concentration at half-maximal activity (AC50) on PD-L1 came out at 240 nM. Moreover, the 50% inhibitory concentration (IC50) on PD-1/PD-L1 came out at 0.14 nM. The EC50 on PD-1/PD-L1 interaction was 680 nM.
Consider `COc1nc(-c2cccc(-c3cccc(COc4nc(OC)c(CN5CC6(CNC(=O)C6)C5)cc4Cl)c3Cl)c2Cl)ccc1CNC[C@@H]1CCC(=O)N1` [Example 430], for which, on PD-L1, the AC50 amounted to 290 nM. At PD-1/PD-L1, the IC50 was determined as 2.06 nM. Moreover, at PD-1/PD-L1 interaction, the concentration giving a half-maximal response (EC50) was found to be 268 nM.
For the compound `COc1nc(OCc2cccc(-c3cccc(-c4ccc(CNC[C@@H]5CCC(=O)N5)cc4)c3Cl)c2Cl)c(Br)cc1CNC[C@@H]1CCC(=O)N1` [Example 431], the AC50 on PD-L1 was 249 nM. Further, the IC50 at PD-1/PD-L1 is 1.32 nM. Also, at PD-1/PD-L1 interaction, the EC50 worked out at 275 nM.
Turning to `COc1nc(-c2cccc(-c3cccc(COc4nc(OC)c(CNC[C@H]5CCC(=O)N5)cc4Cl)c3Cl)c2Cl)ccc1CN1CC2(CCC(=O)N2)C1` [Example 432], at PD-L1, the half-maximal activity concentration (AC50) was 539 nM. For the same compound, the 50% inhibitory concentration (IC50) at PD-1/PD-L1 amounted to 1.52 nM. Also, the EC50 on PD-1/PD-L1 interaction worked out at 289 nM.
The like results for `Cc1c(COc2cc(OCc3cncc(C#N)c3)c(CNC[C@@H](O)CC(=O)O)cc2Cl)cccc1-c1cccc(-c2ccc(CNC[C@@H](O)CC(=O)O)c(OCC#N)c2)c1C` [Example 433] were, in that order, 167 nM, 0.08 nM and 290 nM.
With `COc1nc(-c2cccc(-c3cccc(NC(=O)c4ccc(C5=NCCN5)cn4)c3C)c2Cl)ccc1C1=NCCN1` [Example 434], the AC50 at PD-L1 stood at 106 nM. The half-maximal inhibitory concentration (IC50) on PD-1/PD-L1 is 0.077 nM. For the same compound, the 50% effective concentration (EC50) on PD-1/PD-L1 interaction came to 332 nM.
In the case of `COc1nc(OCc2cccc(-c3cccc(-c4ccc5c(c4)C[C@@H](N)C5)c3Cl)c2Cl)c(Br)cc1CN[C@@](C)(CO)C(=O)O` [Example 435], the AC50 on PD-L1 was found to be 86.2 nM. The IC50 on PD-1/PD-L1 turned out to be 0.234 nM. On PD-1/PD-L1 interaction, the 50% effective concentration (EC50) turned out to be 316 nM.
